Target: T1, AsPC-1 HiBiT-KRASG12D (Homo sapiens, UniProt P01116, G12D)
T1 construct: insert the HiBiT tag onto the N-terminus of one or more of the endogenous KRAS alleles; endogenous in cells; host or cells: AsPC-1 (ATCC CRL-1682), CRISPR-Cas9 knock-in clone, one tagged allele
Assay: HiBiT degradation assay (G12D), AsPC-1 HiBiT-KRASG12D cells
Format: cell-based
Settings: 24 hours treatment; for Dmax: ASPC1, AsPC-1 HiBiT-KRASG12D cells; for DC50: HiBiT luminescence
Summary of the method: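 AsPC-1 cells (homozygous G12D) carrying a CRISPR knock-in N-terminal HiBiT tag on endogenous KRAS were treated with compounds for 24 hours at 37° C, 5% CO2, in triplicate. Alamar blue viability was read first, then cells were washed and lysed with Nano-Glo HiBiT reagent for 45 minutes before luminescence reading.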

T1 sequence (P01116 1-188 isoform P01116-2 G12D): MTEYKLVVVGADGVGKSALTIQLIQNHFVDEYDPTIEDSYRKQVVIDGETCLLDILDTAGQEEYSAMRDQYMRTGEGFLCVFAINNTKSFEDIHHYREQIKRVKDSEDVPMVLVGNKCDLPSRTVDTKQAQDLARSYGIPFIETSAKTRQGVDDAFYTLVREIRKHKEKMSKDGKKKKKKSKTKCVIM

Row | Compound | Dmax (maximum degradation observed) | DC50 (AsPC-1 HiBiT-KRASG12D cells) | AsPC-1 HiBiT-KRASG12D DMax (AsPC-1 HiBiT-KRASG12D cells, maximum degradation observed)
1 | C#Cc1c(F)ccc2cc(O)cc(-c3ncc4c(N5CC6CCC(C5)N6)nc(OCCN5CCC6(CC5)CC(Oc5cc([C@@H](C(=O)N7C[C@H](O)C[C@H]7C(=O)N[C@@H](C)c7ccc(-c8scnc8C)cc7)C(C)C)on5)C6)nc4c3F)c12 [Compound 159, (2S,4R)-1-[(2S)-2-{3-[(7-{2-[(4-{3,8-diazabicyclo[3.2.1]octan-3-yl}-7-(8-ethynyl-7-fluoro-3-hydroxynaphthalen-1-yl)-8-fluoropyrido[4,3-d]pyrimidin-2-yl)oxy]ethyl}-7-azaspiro[3.5]nonan-2-yl)oxy]-1,2-oxazol-5-yl}-3-methylbutanoyl]-4-hydroxy-N-[(1S)-1-[4-(4-methyl-1,3-thiazol-5-yl)phenyl]ethyl]pyrrolidine-2-carboxamide] | 60 to 80% | < 0.6 µM | 
2 | CCc1cccc2cc(O)cc(-c3ncc4c(N5CC6CCC(C5)N6)nc(OC[C@@]56CCCN5[C@H](COC(=O)N5CCN(c7cc([C@H](C(=O)N8C[C@H](O)C[C@H]8C(=O)N[C@@H](C)c8ccc(-c9scnc9C)cc8)C(C)C)on7)[C@H](C)C5)CC6)nc4c3F)c12 [Compound 327, [(3S,8S)-8-[[4-(3,8-diazabicyclo[3.2.1]octan-3-yl)-7-(8-ethyl-3-hydroxy-1-naphthyl)-8-fluoro-pyrido[4,3-d]pyrimidin-2-yl]oxymethyl]-1,2,3,5,6,7-hexahydropyrrolizin-3-yl]methyl (3R)-4-[5-[(1R)-1-[(2S,4R)-4-hydroxy-2-[[(1S)-1-[4-(4-methylthiazol-5-yl)phenyl]ethyl]carbamoyl]pyrrolidine-1-carbonyl]-isobutyl]isoxazol-3-yl]-3-methyl-piperazine-1-carboxylate] | 80 to 100% | < 0.6 µM | 
3 | Cc1ncsc1-c1ccc([C@H](C)NC(=O)[C@@H]2C[C@@H](O)CN2C(=O)[C@H](c2cc(OC[C@@H]3CC[C@]4(COc5nc(N6CC7CCC(C6)N7)c6cnc(-c7cc(O)cc(Cl)c7C7CC7)c(F)c6n5)CCCN34)no2)C(C)C)cc1 [Compound 65, (2S,4R)-1-[(2S)-2-(3-{[(3S,7aS)-7a-({[7-(3-chloro-2-cyclopropyl-5-hydroxyphenyl)-4-{3,8-diazabicyclo[3.2.1]octan-3-yl}-8-fluoropyrido[4,3-d]pyrimidin-2-yl]oxy}methyl)-hexahydro-1H-pyrrolizin-3-yl]methoxy}-1,2-oxazol-5-yl)-3-methylbutanoyl]-4-hydroxy-N-[(1S)-1-[4-(4-methyl-1,3-thiazol-5-yl)phenyl]ethyl]pyrrolidine-2-carboxamide] | < 20% | 1 to 3 µM | 
4 | C#Cc1c(F)ccc2cccc(-c3ncc4c(N5CC6CCC(C5)N6)nc(OC[C@]56CCCN5[C@H](COC(=O)N5CCN(c7cc(C(C(=O)N8C[C@H](O)C[C@H]8C(=O)N[C@@H](C)c8ccc(-c9scnc9C)cc8)C(C)C)on7)CC5)CC6)nc4c3F)c12 (single isomer, unassigned) [Compound 270, [(3S,7aR)-7a-{[(4-{3,8-diazabicyclo[3.2.1]octan-3-yl}-7-(8-ethynyl-7-fluoronaphthalen-1-yl)-8-fluoropyrido[4,3-d]pyrimidin-2-yl)oxy]methyl}-hexahydro-1H-pyrrolizin-3-yl]methyl 4-{5-[(2R*)-1-[(2S,4R)-4-hydroxy-2-{[(1S)-1-[4-(4-methyl-1,3-thiazol-5-yl)phenyl]ethyl]carbamoyl}pyrrolidin-1-yl]-3-methyl-1-oxobutan-2-yl]-1,2-oxazol-3-yl}piperazine-1-carboxylate] | 80 to 100% | < 0.6 µM | 
5 | CCc1cccc2cc(O)cc(-c3ncc4c(N5CC6CCC(C5)N6)nc(OC[C@]56CCCN5[C@@H](COC(=O)N(C)Cc5cc([C@@H](C(=O)N7C[C@H](O)C[C@H]7C(=O)N[C@@H](C)c7ccc(-c8scnc8C)cc7)C(C)C)on5)CC6)nc4c3F)c12 [Compound 93, [(3R,7aR)-7a-{[(4-{3,8-diazabicyclo[3.2.1]octan-3-yl}-7-(8-ethyl-3-hydroxynaphthalen-1-yl)-8-fluoropyrido[4,3-d]pyrimidin-2-yl)oxy]methyl}-hexahydro-1H-pyrrolizin-3-yl]methyl N-({5-[(2S)-1-[(2S,4R)-4-hydroxy-2-{[(1S)-1-[4-(4-methyl-1,3-thiazol-5-yl)phenyl]ethyl]carbamoyl}pyrrolidin-1-yl]-3-methyl-1-oxobutan-2-yl]-1,2-oxazol-3-yl}methyl)-N-methylcarbamate] | 20 to 60% | 1 to 3 µM | 
6 | CCc1cccc2cc(O)cc(-c3ncc4c(N5CC6CCC(C5)N6)nc(OC[C@@]56CCCN5[C@H](COC(=O)N5CCN(c7cc([C@H](C(=O)N8C[C@H](O)C[C@H]8C(=O)N[C@@H](C)c8ccc(-c9scnc9C)cc8)C(C)C)on7)CC5)CC6)nc4c3F)c12 (relative stereo) [Compound 107, [(3R*,7aR**)-7a-{[(4-{3,8-diazabicyclo[3.2.1]octan-3-yl}-7-(8-ethyl-3-hydroxynaphthalen-1-yl)-8-fluoropyrido[4,3-d]pyrimidin-2-yl)oxy]methyl}-hexahydro-1H-pyrrolizin-3-yl]methyl 4-{5-[(2R***)-1-[(2S,4R)-4-hydroxy-2-{[(1S)-1-[4-(4-methyl-1,3-thiazol-5-yl)phenyl]ethyl]carbamoyl}pyrrolidin-1-yl]-3-methyl-1-oxobutan-2-yl]-1,2-oxazol-3-yl}piperazine-1-carboxylate] | 80 to 100% | < 0.6 µM | 
7 | C#Cc1c(F)ccc2cc(O)cc(-c3ncc4c(N5CC6CCC(C5)N6)nc(OCCN5CCC6(CC5)CC(Oc5cc([C@H](C(=O)N7C[C@H](O)C[C@H]7C(=O)N[C@@H](C)c7ccc(-c8scnc8C)cc7)C(C)C)on5)C6)nc4c3F)c12 [Compound 161, (2S,4R)-1-[(2R)-2-{3-[(7-{2-[(4-{3,8-diazabicyclo[3.2.1]octan-3-yl}-7-(8-ethynyl-7-fluoro-3-hydroxynaphthalen-1-yl)-8-fluoropyrido[4,3-d]pyrimidin-2-yl)oxy]ethyl}-7-azaspiro[3.5]nonan-2-yl)oxy]-1,2-oxazol-5-yl}-3-methylbutanoyl]-4-hydroxy-N-[(1S)-1-[4-(4-methyl-1,3-thiazol-5-yl)phenyl]ethyl]pyrrolidine-2-carboxamide] | 80 to 100% | < 0.6 µM | 
8 | CCc1cccc2cc(O)cc(-c3ncc4c(N5CC6CCC(C5)N6)nc(O[C@H](C)CN5CCC(COc6cc([C@H](C(=O)N7C[C@H](O)C[C@H]7C(=O)N[C@@H](C)c7ccc(-c8scnc8C)cc7)C(C)C)on6)CC5)nc4c3F)c12 [Compound 101, (2S,4R)-1-[(2R)-2-[3-({1-[(2R)-2-[(4-{3,8-diazabicyclo[3.2.1]octan-3-yl}-7-(8-ethyl-3-hydroxynaphthalen-1-yl)-8-fluoropyrido[4,3-d]pyrimidin-2-yl)oxy]propyl]piperidin-4-yl}methoxy)-1,2-oxazol-5-yl]-3-methylbutanoyl]-4-hydroxy-N-[(1S)-1-[4-(4-methyl-1,3-thiazol-5-yl)phenyl]ethyl]pyrrolidine-2-carboxamide] | 60 to 80% | < 0.6 µM | 
9 | CCc1cccc2cccc(-c3ncc4c(N5CC6CCC(C5)N6C(=O)OC(C)(C)C)nc(OC[C@]56CCCN5[C@H](COC(=O)N5CCN(c7cc([C@H](C(=O)N8C[C@H](O)C[C@H]8C(=O)N[C@@H](C)c8ccc(-c9scnc9C)cc8)C(C)C)on7)[C@H](C)C5)CC6)nc4c3F)c12 [Compound 226, tert-butyl 3-[7-(8-ethyl-1-naphthyl)-8-fluoro-2-[[(3S,8R)-3-[[(3R)-4-[5-[(1R)-1-[(2S,4R)-4-hydroxy-2-[[(1S)-1-[4-(4-methylthiazol-5-yl)phenyl]ethyl]carbamoyl]pyrrolidine-1-carbonyl]-2-methyl-propyl]isoxazol-3-yl]-3-methyl-piperazine-1-carbonyl]oxymethyl]-1,2,3,5,6,7-hexahydropyrrolizin-8-yl]methoxy]pyrido[4,3-d]pyrimidin-4-yl]-3,8-diazabicyclo[3.2.1]octane-8-carboxylate] |  | < 0.6 µM | A (80% < A ≤ 100%)
10 | CCc1cccc2cc(O)cc(-c3ncc4c(N5CC6CCC(C5)N6)nc(OC[C@]56CCCN5[C@@H](COc5cc([C@H](C(=O)N7C[C@H](O)C[C@H]7C(=O)N[C@@H](C)c7ccc(-c8scnc8C)cc7)C(C)C)on5)CC6)nc4c3F)c12 [Compound 27, (2S,4R)-1-[(2R)-2-(3-{[(3R,7aR)-7a-{[(4-{3,8-diazabicyclo[3.2.1]octan-3-yl}-7-(8-ethyl-3-hydroxynaphthalen-1-yl)-8-fluoropyrido[4,3-d]pyrimidin-2-yl)oxy]methyl}-hexahydro-1H-pyrrolizin-3-yl]methoxy}-1,2-oxazol-5-yl)-3-methylbutanoyl]-4-hydroxy-N-[(1S)-1-[4-(4-methyl-1,3-thiazol-5-yl)phenyl]ethyl]pyrrolidine-2-carboxamide] |  | < 0.6 µM | 
11 | CCc1cccc2cc(O)cc(-c3ncc4c(N5CC6CCC(C5)N6)nc(O[C@H](C)CN5CCC6(CC5)CN(c5cc([C@H](C(=O)N7C[C@H](O)C[C@H]7C(=O)N[C@@H](C)c7ccc(-c8scnc8C)cc7)C(C)C)on5)C6)nc4c3F)c12 [Compound 25, (2S,4R)-1-[(2R)-2-(3-{7-[(2R)-2-[(4-{3,8-diazabicyclo[3.2.1]octan-3-yl}-7-(8-ethyl-3-hydroxynaphthalen-1-yl)-8-fluoropyrido[4,3-d]pyrimidin-2-yl)oxy]propyl]-2,7-diazaspiro[3.5]nonan-2-yl}-1,2-oxazol-5-yl)-3-methylbutanoyl]-4-hydroxy-N-[(1S)-1-[4-(4-methyl-1,3-thiazol-5-yl)phenyl]ethyl]pyrrolidine-2-carboxamide] | 20 to 60% | 0.6 to 1 µM | 

— US20250206732A1, “COMPOUNDS AND METHODS FOR THE TARGETED DEGRADATION OF KRAS” (Arvinas Operations, Inc., priority 2022, published 2025)
